ChEMBL document CHEMBL3886312, “Sepiapterin reductase inhibitors for the treatment of pain” (2015)

Assays:
Sepiapterin reductase [1] = target: T1, Sepiapterin reductase (Homo sapiens, UniProt P35270); test: (§1) The LC/MS assay monitors the product formation (L-biopterin) and the chromogenic assay measures OD at 420 nm.N-methoxyacetyl serotonin was used as a reference compound (positive control). […] (2) Add 40 uL enzyme/assay buffer.
Sepiapterin reductase [2] = target: T1, Sepiapterin reductase; test: as §1, with “LC/MS assay: To screen for SPR inhibition, a biochemical assay based on LC/MS (and chromogenic) read-out has been developed. The” for “The”

T1 sequence (P35270 whole entry): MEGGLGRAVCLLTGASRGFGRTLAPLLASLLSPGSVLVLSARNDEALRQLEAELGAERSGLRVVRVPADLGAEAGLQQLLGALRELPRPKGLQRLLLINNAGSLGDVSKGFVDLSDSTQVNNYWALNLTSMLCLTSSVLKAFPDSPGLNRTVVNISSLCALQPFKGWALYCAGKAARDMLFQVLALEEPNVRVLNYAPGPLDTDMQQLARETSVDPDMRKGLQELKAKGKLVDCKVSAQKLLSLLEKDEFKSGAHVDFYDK

IC50 (Sepiapterin reductase [1]): 1.1 µM | IC50 (Sepiapterin reductase [2]): 1 µM
Structure (SMILES): COCC(=O)NCCc1c[nH]c2ccc(NS(C)(=O)=O)cc12
